Data on 50 molecules can be found in ChEMBL document CHEMBL4421722, “Inhibitors of protein prenyltransferases” (2013).

For the test, the species on record is Rattus norvegicus. Put plainly: Inhibition of rat recombinant geranylgeranyltransferase type I expressed in Escherichia coli assessed as residual enzyme activity for geranylgeranylation of K-Ras4B at 50 uM incubated for 30 mins in presence of [3H]GGPP by scintillation counting assay relative to control.

As for `Cc1ccc(S(=O)(=O)N2[C@@H](c3ccc(Br)cc3)C(C(=O)O)=CC[C@H]2c2ccc(Cl)cc2)cc1`, the Activity was 57.5%.

Regarding `CCc1ccc([C@@H]2C[C@@H](SCc3ccc(Cl)cc3)[C@H](C(=O)O)CN2S(=O)(=O)c2ccc(C)cc2)cc1`, the Activity came out at 43.7%.

As for `C=CCS[C@@H]1C[C@@H](c2ccc3c(c2)OCO3)N(S(=O)(=O)c2ccc(C)cc2)C[C@H]1C(=O)O`, the Activity came out at 76.4%.

On to `Cc1ccc(S(=O)(=O)N2[C@@H](c3ccc(Cl)cc3)C(C(=O)O)=CC[C@H]2c2ccc(F)cc2)cc1`, for which the Activity is 64.8%.

With `CC(C)(C)c1ccc([C@H]2C(C(=O)O)=CC[C@@H](c3ccccc3)N2S(C)(=O)=O)cc1`, the Activity came to 73.3%.

For the molecule `COc1cc([C@@H]2C[C@@H](SCc3ccc(C(C)(C)C)cc3)[C@H](C(=O)O)CN2S(=O)(=O)c2ccc(C)cc2)cc(OC)c1OC`, the Activity was found to be 71.3%.

Regarding `Cc1ccc([C@@H]2C[C@@H](SCc3ccc(Cl)cc3)[C@H](C(=O)O)CN2S(=O)(=O)c2ccc(C)cc2)cc1`, the Activity stood at 50.9%.

Turning to `CCCCCCS[C@@H]1C[C@@H](c2ccc(OC)c(OC)c2)N(S(=O)(=O)c2ccc(C)cc2)C[C@H]1C(=O)O`, the Activity came to 97.2%.

For the molecule `CCCCS[C@@H]1C[C@@H](c2ccccc2F)N(S(=O)(=O)c2ccc(C)cc2)C[C@H]1C(=O)O`, the Activity turned out to be 86.3%.

Turning to `Cc1ccc([C@@H]2C[C@@H](SCc3ccccc3)[C@H](C(=O)O)CN2S(=O)(=O)c2ccc(Cl)cc2)cc1`, the Activity was determined as 40.3%.

For the molecule `Cc1ccc(S(=O)(=O)N2[C@@H](c3cccc(F)c3)C(C(=O)O)=CC[C@H]2c2cccc(F)c2)cc1`, the Activity was 69.9%.

As to `CCCS[C@@H]1C[C@@H](c2cccc(Br)c2)N(S(=O)(=O)c2ccc(C)cc2)C[C@H]1C(=O)O`, the Activity is 88.5%.

For the molecule `Cc1ccc(S(=O)(=O)N2[C@@H](c3ccc(Br)cc3)C(C(=O)O)=CC[C@H]2c2ccc(C#N)cc2)cc1`, the Activity worked out at 70.6%.

On to `CCCCCCS[C@@H]1C[C@@H](c2ccc(C)cc2)N(S(=O)(=O)c2ccc(Cl)cc2)C[C@H]1C(=O)O`, for which the Activity stood at 71.6%.

Turning to `CC(=O)C1=CC[C@@H](c2ccc(C)cc2)N(S(=O)(=O)c2ccc(Cl)cc2)C1`, the Activity is 112%.

Consider `COc1ccc([C@@H]2C[C@@H](SCc3ccccc3)[C@H](C(=O)O)CN2S(=O)(=O)c2ccccc2C)cc1`, for which the Activity was found to be 33.9%.

In the case of `Cc1ccc(S[C@@H]2C[C@@H](c3ccc(Cl)cc3)N(S(=O)(=O)c3ccc(C)cc3)C[C@H]2C(=O)O)cc1`, the Activity was determined as 76.1%.

As for `CS(=O)(=O)N1[C@@H](c2cccc(F)c2)C(C(=O)O)=CC[C@H]1c1ccc(Cl)cc1`, the Activity came out at 69.9%.

For `CCCS[C@@H]1C[C@@H](c2ccc(Cl)cc2)N(S(=O)(=O)c2ccccc2C)C[C@H]1C(=O)O`, the Activity turned out to be 53.3%.

On to `Cc1ccc([C@H]2C(C(=O)O)=CC[C@@H](c3ccc(C)cc3)N2S(=O)(=O)c2ccccc2)cc1`, for which the Activity worked out at 99.8%.

In the case of `Cc1ccc(S(=O)(=O)N2[C@@H](c3cccc(C)c3)C(C(=O)O)=CC[C@H]2c2ccc(C(C)C)cc2)cc1`, the Activity worked out at 57.1%.

As for `Cc1ccc(S(=O)(=O)N2C[C@@H](C(=O)O)[C@H](SCCC(C)C)C[C@H]2c2ccc(Cl)cc2)cc1`, the Activity worked out at 39.4%.

Turning to `Cc1ccc([C@@H]2CC=C(C(=O)O)[C@H](c3ccc(F)cc3)N2S(=O)(=O)c2ccccc2)cc1`, the Activity is 68.1%.

`Cc1ccc(S(=O)(=O)N2[C@@H](c3cccc(Cl)c3)C(C(=O)O)=CC[C@H]2c2ccccc2)cc1`: the Activity was found to be 71.3%.

For the molecule `O=C(O)C1=CC[C@@H](c2ccc(Cl)cc2)N(S(=O)(=O)c2ccc(Cl)cc2)[C@H]1c1ccc(Br)cc1`, the Activity stood at 32.6%.

As to `Cc1ccc([C@H]2C(C(=O)O)=CC[C@@H](c3ccc(Cl)cc3)N2S(=O)(=O)c2ccc(C)cc2)cc1`, the Activity amounted to 60.7%.

Consider `CCCCCCS[C@@H]1C[C@@H](c2ccc(Cl)cc2)N(S(=O)(=O)c2ccc(C)cc2)C[C@H]1C(=O)O`, for which the Activity was found to be 72.2%.

With `Cc1ccc(S(=O)(=O)N2C[C@@H](C(=O)O)[C@H](SCC(C)C)C[C@H]2c2ccccc2F)cc1`, the Activity was 56.8%.

In the case of `COc1ccc([C@@H]2C[C@@H](SCC(C)C)[C@H](C(=O)O)CN2S(=O)(=O)c2ccc(C)cc2)cc1`, the Activity was found to be 79.3%.

For the molecule `COc1ccc([C@@H]2C[C@@H](SCCc3ccccc3)[C@H](C(=O)O)CN2S(=O)(=O)c2ccc(C)cc2)cc1OC`, the Activity came out at 44.1%.

Take `Cc1ccc(S(=O)(=O)N2[C@@H](c3ccc(C(C)(C)C)cc3)C(C(=O)O)=CC[C@H]2c2ccc(F)cc2)cc1`: the Activity turned out to be 85.1%.

For `Cc1ccccc1S(=O)(=O)N1C[C@@H](C(=O)O)[C@H](SCCC(C)C)C[C@H]1c1ccc(Cl)cc1`, the Activity is 53.2%.

Regarding `CCc1ccc([C@@H]2CC=C(C(=O)O)[C@H](c3cccc(Br)c3)N2S(=O)(=O)c2ccc(C)cc2)cc1`, the Activity amounted to 75.4%.

Take `CCCCCCS[C@@H]1C[C@@H](c2ccc(OC)cc2)N(S(=O)(=O)c2ccccc2C)C[C@H]1C(=O)O`: the Activity was 72.9%.

Take `Cc1ccc([C@@H]2C[C@@H](Sc3ccc(Cl)cc3)[C@H](C(=O)O)CN2S(=O)(=O)c2ccc(C)cc2)cc1`: the Activity came to 57%.

Turning to `COc1ccc([C@@H]2CC=C(C(=O)O)[C@H](c3cccc(F)c3)N2S(=O)(=O)c2ccccc2)cc1`, the Activity was 91.8%.

For `COc1cc([C@@H]2C[C@@H](SC3CCCC3)[C@H](C(=O)O)CN2S(=O)(=O)c2ccc(C)cc2)cc(OC)c1OC`, the Activity turned out to be 105%.

On to `CCCCCCS[C@@H]1C[C@@H](c2ccccc2)N(S(=O)(=O)c2ccc(C)cc2)C[C@H]1C(=O)O`, for which the Activity was 77.5%.

Consider `CCc1ccc([C@@H]2C[C@@H](Sc3ccc(Cl)cc3)[C@H](C(=O)O)CN2S(=O)(=O)c2ccc(C)cc2)cc1`, for which the Activity was determined as 72%.

On to `CCCS[C@@H]1C[C@@H](c2ccc(Cl)cc2)N(S(=O)(=O)c2ccc(C)cc2)C[C@H]1C(=O)O`, for which the Activity worked out at 71%.

Take `C=CCS[C@@H]1C[C@@H](c2ccc(OC)cc2)N(S(=O)(=O)c2ccccc2C)C[C@H]1C(=O)O`: the Activity worked out at 65.1%.

With `CCc1ccc([C@@H]2CC=C(C(=O)O)[C@H](c3cccc(C)c3)N2S(=O)(=O)c2ccc(C)cc2)cc1`, the Activity came out at 60.5%.

In the case of `Cc1ccc(S(=O)(=O)N2[C@@H](c3cccc(C)c3)C(C(=O)O)=CC[C@H]2c2cccc(Cl)c2)cc1`, the Activity was 46.9%.

For `Cc1ccc(S(=O)(=O)N2C[C@@H](C(=O)O)[C@H](SCc3ccccc3)C[C@H]2c2ccccc2)cc1`, the Activity is 92.1%.

Consider `COc1ccc([C@@H]2C[C@@H](SCc3ccccc3)[C@H](C(=O)O)CN2S(=O)(=O)c2ccc(C)cc2)cc1`, for which the Activity was found to be 105%.

Turning to `Cc1ccc(S(=O)(=O)N2C[C@@H](C(=O)O)[C@H](SCC(C)C)C[C@H]2c2ccc3c(c2)OCO3)cc1`, the Activity came out at 81.7%.

Take `COc1ccc([C@@H]2CC=C(C(=O)O)[C@H](c3cccc(Br)c3)N2S(=O)(=O)c2ccc(Cl)cc2)cc1`: the Activity was found to be 60.7%.

Consider `Cc1ccc(S(=O)(=O)N2[C@@H](c3ccc(Cl)cc3)C(C(=O)O)=CC[C@H]2c2cccc(Cl)c2)cc1`, for which the Activity turned out to be 60.4%.

For `Cc1ccc(S(=O)(=O)N2[C@@H](c3ccc(F)cc3)C(C(=O)O)=CC[C@H]2c2ccc(F)cc2)cc1`, the Activity stood at 66.8%.

For `CCCCCS[C@@H]1C[C@@H](c2ccc(C)cc2)N(S(=O)(=O)c2ccccc2C)C[C@H]1C(=O)O`, the Activity came out at 62.9%.
